The test system of series [1] is severe traumatic brain injury (TBI). Nature of the series: Phase II study, single i.v. dose in patients with severe head trauma. Particulars: for AUC∞/Dose: severe TBI patients, mean ± SE, normalized for dose (mg/kg). In kind it is in vivo, human. How it is done:
A Phase II, double masked, multi-center study was conducted to evaluate the safety and tolerance of dexanabinol of high enantiomeric purity following a single intravenous administration in patients with severe head trauma (Knoller N. et al., Crit. Care Med. 30: 548-54, 2002). Treatment was administered within 6 hours of injury, based on the therapeutic window observed in relevant animal models. Additional objectives of the study were to evaluate the long-term outcome of the patients and to determine the optimal dose for Phase III studies.
Medical information was collected en route or upon arrival at the hospital to determine a patient's suitability for enrollment and a randomized patient number was assigned. Written informed consent was obtained from relatives, all eligible patients being in coma. Antihistamines (promethazine hydrochloride PHENERGAN® 25 mg and cimetidine 50 mg) were administered by intravenous bolus injection 15 minutes prior to study drug administration. Dexanabinol was manufactured and formulated as previously described (50 mg/ml in CREMOPHOR EL®:ethanol clinical formulation) and diluted into 100 ml saline prior to injection. Solutions of dexanabinol were infused intravenously using a peristaltic pump (Ivac) at a rate of 6 ml/min (or approximately 15 min/dose). The total doses of dexanabinol scheduled to be administered were 48, 150, or 200 mg per patient. Five milliliters of blood were removed (from the contralateral arm) at the end of the infusion, at 10 and 30 min, and at 1, 3, 6, 12, and 24 hours thereafter for determination of plasma dexanabinol concentrations. Pharmacokinetic parameters were estimated by non-compartmental methods (WinNonlin Professional version 3.2) up to 24 hr post-injection.
Primary end points included intracranial pressure (ICP), cardiovascular function (heart rate, mean arterial blood pressure, cerebral perfusion pressure and electrocardiogram), clinical laboratory tests, and adverse medical events. The clinical outcome was assessed by the Glasgow outcome scale throughout a six month follow-up period. The nature and incidence of adverse medical events were similar in all groups supporting the safety of dexanabinol of high enantiomeric purity. […] Dexanabinol is currently being tested in a Phase III clinical trial for TBI.

Series [2] can be described thus: single dose toxicity and pharmacokinetics, rat. The following applies: for AUC(0-inf) / Cmax: Sprague Dawley, plasma, single i.v. 50 mg/kg (NOAEL); for AUC∞ Ratio to Phase I / Cmax Ratio to Phase I / Cmax Ratio to Phase II: single i.v. 50 mg/kg; for AUC∞ Ratio to Phase I / Cmax Ratio to Phase I: vs human 150 mg Phase I; for Cmax Ratio to Phase II: vs human 150 mg Phase II. The class given is in vivo, Sprague Dawley rats. How it is done: The pharmacokinetics of dexanabinol of high enantiomeric purity formulated in CREMOPHOR EL®:ethanol as described in Example 4 were investigated in rats, rabbits, and monkeys following intravenous administration of single doses, and 14 and 28 days of repeated dosing. Human pharmacokinetics was studied during Phase I and Phase II clinical studies. Dexanabinol used in the pharmacokinetic studies was formulated as drug concentrates of 50 and 100 mg/ml and diluted with sterile 0.9% NaCl solution prior to intravenous (i.v.) administration to the desired final doses. Determination of dexanabinol concentrations in plasma and brain extracts was carried out using a validated Gas Chromatography-Mass Spectra (GC-MS) assay following solid phase extraction of the drug and derivatization. The limit of quantitation of the assay is 0.1 ng/ml.
Pharmacokinetic parameters were estimated by a non-compartmental method using WinNonlin Professional version 3.2 (Pharsight Corp., Mountain View, Calif.). The maximum plasma concentration (Cmax), when the drug is administered by infusion, is the concentration at the end of infusion. The Cmax following intravenous bolus administration is the value estimated by the software to be the concentration at t=0. The terminal slope (X) was estimated by linear regression through the last time points and used to calculate the terminal half-life (t1/2) from the following equation: t1/2=0.693/λ The area under the curve from time of dosing through the last time point (AUCz) was calculated by the linear trapezoid method. The AUC extrapolated to infinity (AUC∞) was calculated from the following equation: AUC∞=AUCz+Cz/λ where Cz is the concentration at the last time point predicted by the linear regression. AUC∞ was normalized for dose (mg/kg) and presented as AUC∞/Dose. Mean residence time (MRT), when the drug is administered by infusion is described by the following equation: MRT=(AUMC/AUC)−(TI)/2 Mean residence time after i.v. bolus administration is described by the following equation: MRT=(AUMC/AUC) where AUMC is the area under the first moment curve and TI is the length of infusion. Plasma clearance (CL), and the apparent volume of distribution at steady state (Vss) were calculated from the following equations: CL=Dose/AUC∞ Vss=MRT×CL
Table 6 summarizes the maximum plasma concentration (Cmax) and the area under the plasma concentration versus time curve (AUC) observed at the NOAEL doses cited above, as well as the animal to human exposure ratios (ER) for dexanabinol of high enantiomeric purity, expressed as the ratio of the pharmacokinetic (PK) parameter to that observed for a 150 mg dose in a Phase I study in human volunteers and in Phase II study in patients suffering from severe traumatic brain injury (TBI).

The test system of a further series is CB1 mediated activity. Nature of the series: mice tetrad assay (suppression of spontaneous activity, hypothermia, catalepsy). In kind it is in vivo. Particulars: 50 mg/kg intravenously, dexanabinol according to the invention. An excerpt: The prepared sample was further tested for suppression of spontaneous activity, hypothermia, and catalepsy measured in the mice tetrad assay, and clearly produced adverse effects. […] Finally, it caused significant catalepsy, with the animals remaining immobile on the beam for almost 30 seconds.
Psychoactive cannabinoids have a variety of pharmacological effects that are evoked through interactions with the CB1 receptors predominantly expressed in the brain. The central nervous system effects that occur after in vivo exposure to HU-210 include euphoria, hypokinesia, hypothermia, anti-nociception, and catalepsy. Hypokinesia, hypothermia, anti-nociception, and catalepsy are the activities that form the basis of the “Tetrad assay” of CB1 mediated activity. […] The threshold for psychomimetic effects of oral THC in humans is in the range of 10-15 mg THC in an adult, i.e from about 0.16 to about 0.25 mg THC/kg body weight for adults of approximately 60 kg (“Cannabis and Cannabinoids, pharmacology, toxicology and therapeutic potential” edited by Grotenhermen and Russo, the Haworth Integrative Healing Press; Chapter 31 pp 345 and 351).
Dexanabinol according to the present invention was tested for suppression of spontaneous activity, hypothermia, and catalepsy in the mice tetrad assay.

As a reminder, the AUC(0-inf) is total exposure, with the tail of the curve extrapolated. For orientation: Cmax means the highest concentration seen after dosing. In general, NOAEL refers to the highest dose or exposure tested at which no adverse effect was seen. With `CCCCCCC(C)(C)c1cc(O)c2c(c1)OC(C)(C)[C@H]1CC=C(CO)C[C@H]21` [dexanabinol, 1,1-dimethylheptyl-(3S,4S)-7-hydroxy-Δ^6-tetrahydrocannabinol], the entries for the “AUC∞/Dose” value in series [1] (48 mg single i.v. infusion (n = 10)), in series [1] (150 mg single i.v. infusion (n = 20)) and in series [1] (200 mg single i.v. infusion (n = 21)) were 51,846 ± 5,526 ng × min/ml, 43,542 ± 4,329 ng × min/ml and 69,007 ± 5,835 ng × min/ml, respectively. In addition, in series [1] (Glasgow outcome scale, six month follow-up), the neurological outcome is “trend toward faster and better neurological outcome”. Further, the “Cmax Ratio to Phase II” value in series [1] (human Phase II, 150 mg single i.v., reference itself) was determined as 1.0; in series [2] (rat female) it was 19.7; in series [2] (rat male) it was 51.9. In addition, the “safety in severe head injury” value in series [1] (single i.v. 48, 150 or 200 mg within 6 hours of injury) was “safe and well tolerated”. In series [1] (treated patients, without jeopardizing blood pressure), the “intracranial pressure/cerebral perfusion pressure control” value is recorded as “significantly better”. Further, the total exposure AUC(0-inf) was 173 µg·h/mL in series [2] (iv, rat female) and 67.5 µg·h/mL in series [2] (iv, rat male). Further, the Cmax was 38.8 µg/mL in series [2] (iv, rat female) and 102 µg/mL in series [2] (iv, rat male). In addition, in series [2] (Sprague-Dawley, rat, in vivo, iv, single dose i.v., read-out: no observed adverse effect level (NOAEL)), the NOAEL was 50 mg/kg. The “AUC∞ Ratio to Phase I” value in series [2] (rat female) came to 54.0; in series [2] (rat male), 21.0. Besides, the “Cmax Ratio to Phase I” value in series [2] (rat female) was found to be 7.7; in series [2] (rat male), 20.4. The “adverse effect in tetrad assay” value with CB1 mediated activity is “no adverse effect”.

Values taken from US20070060636A1, “High enantiomeric purity dexanabinol for pharmaceutical compositions” (priority 2002, published 2007).
